Literature values, collected in patent US20220310211A1, “NON-TRANSITORY COMPUTER-READABLE STORAGE MEDIUM, INFORMATION PROCESSING APPARATUS, AND INFORMATION PROCESSING METHOD” (FUJITSU LIMITED, priority 2021, published 2022).

Details: PubChem AID 1006; binary Active/Inactive

Cc1cccc(Cc2cnc(O[Si](C)(C)C)[nH]2)c1C [CID603597]
biological activity: Active
